Measured values as given in patent publication US20100254928A1, “NOVEL COMPOSITION CONTAINING OZONIZED SURFACTANT” (priority 2007, published 2010).

Experiments:
insects such as ants = assay: Repellent activity (Test Example 14); assay type: in vivo, pill bug; conditions: 2 mL of 1% aqueous solution on tissue paper with 1 g honey, 8 hours
Experimental: The repellent performance of the ozonized surfactant of the present invention was checked. […] In addition, 1 g of honey was instilled into the center. […] These specimens were placed on leaf mold in a flower bed, and the conditions were observed 8 hours later.

[1] = tested on: mold (filamentous fungus); assay: Evaluation of antiseptic activity in thickener solution; assay type: cell-based; conditions: 0.1% in 3.5% Carbopol ETD2020 aqueous solution, 25° C.
Experimental: In order to check the antiseptic performance of ozonized surfactants, the ozonized surfactants were added to a substance susceptible to mold. […] Into a 100 mL-glass bottle, 50 mL of the sample was charged. The bottles were kept at 25° C. in a thermostatic air chamber, and temporal changes were visually observed. […] The mold-like material was removed and examined under a 700-power microscope. As a result, spores were detected and the material was identified as a filamentous fungus. The above results confirmed the antiseptic activity of the ozonized surfactants.

slug = assay: Insecticidal activity: test of killing slugs; assay type: in vivo; conditions: 1% aqueous solution, 2 pushes: 1.88 mL sprayed from 15 cm above
Experimental: In order to check the insect control performance of the ozonized surfactant, a test of killing slugs was performed. A slug was put into a glass petri dish. Onto the slug, a 1% aqueous solution of the ozonized surfactant obtained in Example 4, 5, 7, 9 or 10 (2 pushes: 1.88 mL) was sprayed from 15 cm above. After that, the time elapsed until the slug died (the motion stopped) was measured. As a control, the same evaluation was simultaneously performed with a commercial insecticide (product name: NEW Namekuji (slug) Spray, made by Sumitomo Chemical Garden Products Inc., Lot No. 11.05 0806JE) containing a natural substituted phenol, a copper compound and an alcohol, as active ingredients.

Arge pagana larva = assay: Insecticidal activity: test of killing other insects; assay type: in vivo; conditions: 2% aqueous solution, 1.88 mL sprayed
Experimental: (§1) In order to check the insect control performance of the ozonized surfactant, a test of killing other insects was performed. An Orgyia thyellina larva, a Sphrageidus similis larva, and an Arge pagana larva were put into separate glass petri dishes. Onto each insect pest, a 2% aqueous solution of the solution obtained in Example 5 (2 pushes: 1.88 mL) was sprayed from 15 cm above. After that, the time elapsed until each insect died (the motion stopped) was measured.

[2] = tested on: Sphrageidus similis larva; assay: as above; assay type: in vivo; conditions: 2% aqueous solution, 1.88 mL sprayed
Experimental: as §1

Orgyia thyellina larva = assay: as above; assay type: in vivo; conditions: 2% aqueous solution, 1.88 mL sprayed
Experimental: as §1

[3] = Temporal change in oxidizing property (iodine titration method); assay type: physicochemical; conditions: 25° C.
Text: After deaerating the obtained aqueous ozonized surfactant solution to remove dissolved ozone gas by helium purging, the oxidizing property of the aqueous ozonized surfactant solution can be determined by the iodine titration method (see Non Patent Literature 1). Whether or not the aqueous ozonized surfactant solution maintains a function as a surfactant can be evaluated by checking whether or not frothing, which is a characteristic of surfactants, occurs when the solution is agitated or vibrated.
Meanwhile, oxygen was supplied from an oxygen cylinder into an ozonizer (ozonizer GR-RB made by Sumitomo Precision Products Co., Ltd.) at an oxygen flow rate of 0.3 L/min to ozonize the oxygen to produce ozone gas. Then, the ozone gas was dissolved in the above-described aqueous solution in a dissolving module (SEK model made by ERC Technology), and the aqueous solution was circulated at a flow rate of 1 L/min. […] Further, in 30 minutes, the concentration increased to 25 ppm (see FIG. 2). After deaerating the aqueous solution that had undergone about 30-minute ozone treatment to remove dissolved ozone gas by helium purging, oxidizing property of the aqueous solution was determined by the iodine titration method. As a result, the aqueous solution had oxidizing property, and frothing, which is a characteristic of surfactants, was observed. The results confirmed that ozonized Tween 80 had been produced. Further, a temporal change in the oxidizing property of the aqueous solution was determined by the iodine titration method at 25° C. for 20 days. As a result, the percentage of oxidizing property measured after 20 days to that measured just after preparation was 109%.
The solution A was diluted to a 1% aqueous solution, and a temporal change in the oxidizing property of the aqueous solution was determined by the iodine titration method at 25° C. for 700 days. As a result, the percentage of oxidizing property measured after 700 days to that measured just after preparation was 101%.

[4] = Surface-active property test (contact angle); assay type: physicochemical
Experimental: The surface-active properties of ozonized surfactants were determined in the following manner. Aqueous solutions each containing 1% Tween 80, POE (10 EO) oleyl ether or POE (20 EO) oleyl ether (all of which were made by Wako Pure Chemical Industries, Ltd.) were prepared. Each solution was dropped on a polyvinyl chloride plate and measured for a contact angle (θ) with the use of a contact angle meter CA-VP (made by Kyowa Interface Science Co., Ltd.). The same measurement was carried out for a 1% aqueous solution of the ozonized surfactant obtained in Example 1, 4, or 8.

decaglycerin monooleate [Decaglycerol monooleate, reference compound]
ants gathered on the specimen (insects such as ants): 10 ants

Ozonized polyethylene glycol monooleate [Example 5]
Antiseptic activity of thickener soln. (visually observed), 1 month after [1]: Good
Antiseptic activity of thickener soln. (visually observed), 1 week after [1]: Good
Death time of slug (slug): 729 s
Death time (Arge pagana larva): 115 s
Death time [2]: 130 s
Death time (Orgyia thyellina larva): 100 s
percentage of oxidizing property measured after 180 days to that measured just after preparation ([3]; 1% aqueous solution, 180 days): 100%

POE (20 EO) oleyl ether
Contact angle, After ozonization ([4]; 1% aqueous solution of the ozonized surfactant obtained in Example 1, 4, or 8, on polyvinyl chloride plate): 26.7 degree (°)
Contact angle, Before ozonization ([4]; 1% aqueous solution on polyvinyl chloride plate, ion exchange water 87.3°): 59.4 degree (°)

Ozonized decaglycerin monooleate [Example 6]
Antiseptic activity of thickener soln. (visually observed), 1 month after [1]: Good
Antiseptic activity of thickener soln. (visually observed), 1 week after [1]: Good
insects gathered on the specimen (insects such as ants): did not gather at all

ozonized Tween 80 [Example 1]
percentage of oxidizing property measured after 20 days to that measured just after preparation ([3]; 0.1% aqueous solution, 20 days): 109%

Ozonized POE sorbitan monooleate (20 EO) [Example 7]
Death time of slug (slug): 244 s
percentage of oxidizing property measured after 700 days to that measured just after preparation ([3]; 1% aqueous solution, 700 days): 100%

Ozonized POE (20 EO) oleyl ether [Example 8]
percentage of oxidizing property measured after 300 days to that measured just after preparation ([3]; 1% aqueous solution, 300 days): 100%

CCCCCCCC/C=C\CCCCCCCC[N+](C)(C)CCCCCCCC/C=C\CCCCCCCC.[Cl-] [Unozonized surfactant of Ex. 10, dimethyldioleylammonium chloride, reference compound]
ants gathered on the specimen (insects such as ants): 15 ants
